Results as given in patent US20240389585A1, “METHOD FOR PROMOTING PLANT GROWTH” (priority 2021, published 2024).

What was measured:
[1] = tested on: Complex soil microbiome; assay: Crystal violet biofilm biomass, MeJA chemical analogs; assay type: cell-based; settings: 20 hrs
Description: Complex soil microbiome was treated with various MeJA chemical analogs over 20 hrs and stained with CV. The full chemical name of the chemical analogs are as follows: DHJ: Dihydro jasmonic acid; MDHJ: Methyl dihydro jasmonate; MJ: Methyl jasmonate; MO: Methyl octanoate.
This method was used to get a proxy for biofilm biomass. Briefly, planktonic cells were discarded. 50 μL of 0.1% CV solution was added to the well very gently. The biofilm was stained for 10 minutes. The dye was removed gently. 100 μL of PBS was added to the well to wash off the excess CV. PBS was removed, and the wells were left to dry overnight. The next day, 200 ul of 1% SDS was added to each well and was resuspended vigorously with a pipette. After 20 minutes, 20 ul from the top suspension was removed and added to a new 96-well plate. The well was diluted with 180 ul of water and absorbance was checked at 595 nm on a spectrophotometer.
To identify the potential functional group of MeJA for its biofilm-inducing property, several jasmonic acid analogues were screened for their biofilm-inducing capability in the soil microbiome. The analogues were used to study biofilm induction in both complex soil microbiomes (FIG. 8).

[2] = tested on: soil microbiota; assay: Live confocal imaging of soil microbiota biofilm formation (SYTO9 nucleic acid stain, 3D biovolume); assay type: cell-based
Description: (§1) 5 g of JIFFY soil substrate was resuspended in 20 ml of PBS. This suspension was vortexed for 4 minutes and sonicated for 1 minute. It was then filtered through a strainer. The slurry that didn't pass through the strainer was again resuspended in 20 ml of PBS medium and subsequent steps were repeated twice. The filtrate was then centrifuged at 150G for 2 minutes to settle large soil particles and the supernatant was decanted into another tube. This supernatant was then centrifuged at 5500G for 5 minutes to obtain a bacterial pellet. This pellet was resuspended in 20 ml of soil extract medium. This suspension was referred to as “soil microbiota inoculum”. The final concentration in all inocula was around 1×10^8 bacteria per ml as quantified by Baclight bacterial counting kit (flow cytometry) or manual counting with a hemocytometer.
(§2) For the confocal imaging experiments, soil inoculum was enriched in soil extract media overnight at 37° C.
(§3) Soil microbiota inoculum was prepared as described in the section above. MeJA was added to the microbiota to achieve the desired concentration (0, 1, 5, 25 nM for nucleic acid imaging experiment, and 0 and 5 nM for matrix imaging experiment). […] 50 µL of SYTO™9 (Thermo cat. no. S34854) solution (final concentration of 5 μM) was also added to all the wells. For matrix imaging, FilmTracer™ SYPRO™ Ruby Biofilm Matrix Stain (Thermo, cat. no. F10318) was added instead (ready to use, 1×concentration). For live imaging, Zeiss LSM 900 with Airyscan (Definite Focus 2) was used and images were acquired every 30 minutes for 24 hours with 65×oil objective at the NUS Centre for Bioimaging Science (CBIS). For both the dyes (separate experiments), a 488 nm laser was used.
(§4) Image analysis was performed using BiofilmQ software ([…]). Images were aligned along the Z-axis and along time. 2-class Otsu thresholding was used to detect the signal against the background. Sensitivity was set based on thresholding feedback. The rest of the settings were kept at default. Biofilm-related global properties were calculated and exported. We mainly focused on the 3D biovolume of our samples. Linear mixed-effects were used to model the biovolume where time, treatment, and their interaction were the fixed effects, and every sample was considered a random effect (Table 1 and Table 2). Following packages from R were used: nlme (Pinheiro, J. et al., R package version 3.1-153 (2021)), ggplot2 (Wickham, H., Wiley Interdiscip. Rev. Comput. Stat. 3, 180-185 (2011)).

[3] = tested on: soil microbiota biofilms (extracellular matrix proteins); assay: Live confocal imaging of biofilm matrix formation (SYPRO Ruby, 3D biovolume); assay type: cell-based
Description: as §1, §2, §3, §4

[4] = tested on: soil microbiota; assay: Crystal violet biofilm biomass in push-pull dynamic system; assay type: cell-based; settings: 5, 25 and 50 μmol MeJA spiked in soil chamber
Description: as §1
This system consists of an aerator/pump (to push air), 5 μm charcoal filter (to adsorb gaseous impurities), 0.22 μm filter (to trap microbial contamination), gas wash bottle (to moisturize the air), a source chamber (to host the source of volatiles), recipient chamber (to receive volatiles) and vacuum pump (to pull the air out) (FIG. 1D). […]
This method was used to get a proxy for biofilm biomass. […] The well was diluted with 180 ul of water and absorbance was checked at 595 nm on a spectrophotometer.

[5] = tested on: soil microbiome; assay: Biofilm induction by liquid MeJA concentration range; assay type: cell-based; settings: pure liquid MeJA
Description: Biofilm induction of the soil microbiome was tested with several concentrations of pure MeJA at the nanomolar level. It was confirmed that a concentration range from […] of MeJA was effective to induce biofilms without being detrimental to plant growth.

[6] = tested on: soil microbiota biofilm community; assay: 16S rRNA gene amplicon quantitative microbiome profiling of VOC-exposed biofilm communities; settings: 16 and 24 hours
Description: Using the push-pull airflow system, soil microbiota inoculum was exposed to four VOC treatments 1) soil VOCs; 2) WT Arabidopis rVOCs; 3) jmt Arabidopsis rVOCs; 4) jmt Arabidopsis rVOCs+MeJA. Biofilm and planktonic parts of the samples were collected from 28 wells after 16 and 24 hours and stored at −80° C. The collective sample from 28 wells was treated as a single experimental replicate. The whole experiment was repeated eight times.
Biofilm was scraped at specific timepoints and resuspended in PBS solution. DNA-RNA shield was added in 1:1 proportion and samples were stored at −80 C. Zymobiomics DNA miniprep kit was used to isolate DNA from the samples based on their protocol. 16S V4-V5 region was amplified using 515F-Y and 927R primers (Walters et al., mSystems 1 (2016)). 20 µL of reaction contained 2 μL of 10×DreamTaq buffer, 2 μL of 2 mM dNTP mix, 0.5 μL of each primer (10 µM), 0.5 μL of DreamTaq polymerase (5U/μL), 10 ng of template DNA, and molecular grade water to make up the volume. PCR conditions were as follows: initial denaturation at 95° C. for 3 minutes, 35 cycles of denaturation at 95° C. for 45 s, annealing at 50° C. for 45 s, extension at 68° C. for 90 s and final extension at 68° C. for 5 minutes. PCR products were purified with a Genejet PCR purification kit. Amplicon concentration was measured using Qubit DNA BR Kit and Qubit fluorometer. 16S amplicons were submitted for next-gen sequencing on Illumina MiSeq V3 Run (300 base pairs paired-end) at Singapore Centre for Life Science Engineering (SCELSE). Rarefaction analysis was performed to calculate appropriate depth for sequencing (FIG. 17B).
To enumerate the 16S rRNA gene copy numbers, the primer pair 515F and 806R (Walters, W. et al., MSystems 1, (2016)) were used in qPCR to amplify the 16S gene using Applied Biosystem real-time PCR system. The PCR assay mixture consists of 10 ul of PowerUp™ SYBR™ Green Master Mix, 1 ul of each primer from 10 µM stock, 1 ul of DNA of extracted DNA from the microbial population, and 7 ul of sterile nuclease-free water. The PCR amplification program encompassed an initial denaturation step at 95° C. for 3 min followed by 40 three-step cycles at 95° C. for 30 s, at 52° C. for 30 s and 72° C. for 30 s. Plasmid with the fragments of 16S rRNA gene part amplified with same primer pair was taken as standard for creating standard curve with known copy number for absolute quantification. Pearson correlation was calculated for the qPCR-derived copy number and the DNA yield from all the samples (FIG. 17D).
Raw and demultiplexed sequencing data was analysed as follows (also described in a flowchart in FIG. 17A): Primer and adapter sequences were removed using cutadapt (Martin, M., EMBnet.journal 17, 10-12 (2011)). […]

[7] = tested on: microbial isolates from MeJA-induced complex biofilms; assay: Biofilm assay of monoculture strains isolated from MeJA-induced biofilms; assay type: cell-based; settings: 5 nM MeJA, crystal violet after 24 hours
Description: Complex microbiota biofilm exposed to volatile MeJA was scraped off and resuspended in PBS. Through serial dilution, this inoculum was plated on soil extract agar, minimal media agar, and LB agar. Colonies with unique morphology were picked and streaked onto a fresh LB plate to acquire single colonies. The isolated strains were identified using Sanger sequencing of the PCR product with primers 27F and […]. Their biofilm response to volatile MeJA was tested using “push-pull” setup (as described above for complex biofilms). Their response to soluble MeJA was tested by directly adding MeJA to the monoculture inoculum (final concentration of 5 nM). For both assays, biofilms were stained with crystal violet and quantified after 24 hours as explained in the biofilm staining protocol. The initial OD of the inoculum was 0.2.

[8] = 5 nM MeJA, time-treatment interaction

CC/C=C\CC1=C(C)CCC1=O [Cis-jasmone, cis-jasmone]
potential for biofilm induction among jasmonic acid analogues [1]: highest potential for biofilm induction

CCCCCC1C(=O)CCC1CC(=O)O (stereo not shown) [DHJ, Dihydro jasmonic acid]
potential for biofilm induction among jasmonic acid analogues [1]: highest potential for biofilm induction

CC/C=C\CC1C(=O)CCC1CC(=O)OC (stereo not shown) [MeJA, Methyl jasmonate]
Linear mixed-effects model Value, Treatment1 nM (Biovolume) ([2]; 1 nM MeJA, SYTO9, imaging over 24 hours): −988.35 | Linear mixed-effects model Value, Hours: Treatment1 nM (Biovolume) ([2]; 1 nM MeJA, time-treatment interaction): 106.209 | time from which biovolumes differed ([2]; 5 nM MeJA): ≥ 15 h | interaction of time and treatment in mixed-effects model ([2]; 5 nM MeJA vs non-treated biofilms): statistically significant | biofilm growth trajectory (biovolume) ([2]; 5 nM MeJA, 0 to 24 hours, vs control): increasingly higher biofilm growth trajectory compared to the control | Linear mixed-effects model Value, Treatment5 nM (Biovolume) ([2]; 5 nM MeJA, SYTO9, imaging over 24 hours): −453.513 | Linear mixed-effects model Value, Hours: Treatment5 nM (Biovolume) [2, 8]: 102.9409 | Linear mixed-effects model Value, Treatment25 nM (Biovolume) ([2]; 25 nM MeJA, SYTO9, imaging over 24 hours): −1245.62 | Linear mixed-effects model Value, Hours: Treatment25 nM (Biovolume) ([2]; 25 nM MeJA, time-treatment interaction): 90.7811 | time from which MeJA influence appeared in the matrix ([3]; 5 nM MeJA): ≥ 7 h | effect on biofilm matrix ([3]; 5 nM MeJA vs non-treated biofilm): promoted biofilm matrix compared to non-treated biofilm | Linear mixed-effects model Value, Treatment5 (matrix Biovolume) ([3]; 5 nM MeJA, SYPRO Ruby): 294.3537 | Linear mixed-effects model Value, Hours: Treatment5 (matrix Biovolume) [3, 8]: 11.25 | potency in biofilm promotion, volatile form [4]: higher at low concentrations (5 μmol) and gradually declined in a dose-dependent manner | concentration effective to induce biofilms without being detrimental to plant growth [5]: ≥ 500 nM | share of biofilm community with significant shift in abundance ([6]; WT rVOCs vs soil VOCs, MeJA: jmt+MeJA vs jmt rVOCs): ~10% | number of promoted ASVs ([6]; vs respective control): 21 ASVs | number of repressed ASVs ([6]; vs respective control): 82 ASVs | number of responding ASVs ([6]; vs respective control): 103 ASVs | strains MeJA-responsive in biofilm formation, of nine tested [7]: six
